Measured values from ChEMBL document CHEMBL6153133, “Discovery of Diphenyl Ether Derivatives as Novel BKCa Channel Activators: Structure-Activity Relationship, Cryo-EM Complex Structures, and In Vivo Animal Studies” (J Med Chem, 2025).
Blank lines part the entries; values can stand above or below the compound they belong to.

Key:
[1] = molecular target: T1, Calcium-activated potassium channel subunit alpha-1 (Homo sapiens, UniProt Q12791); assay: Activation of BKca channel (unknown origin) by patch-clamp method
[2] = Ratio of drug concentration in male Dunkin Hartley guinea pig brain to plasma at 10 mg/kg, po measured after 1 hrs by LC-MS/MS analysis; format: ADME, organism-based, Cavia porcellus; conditions: read-out: BPR
[3] = Clearance in male Dunkin Hartley guinea pig at 10 mg/kg, iv by LC-MS/MS analysis; format: ADME, organism-based, Cavia porcellus; conditions: in vivo
Cavia porcellus [4] = assay: Antitussive activity in citric acid-induced male Dunkin Hartley guinea pig cough model assessed as reduction in cough number pretreated orally with compound for 4 hrs followed by citric acid administration and measured after 10 mins; format: functional; conditions: 4.167 h, route po, time 250 min
[5] = Cmax in male Sprague-Dawley rat at 10 mg/kg, po by LC-MS/MS analysis; format: ADME, organism-based; conditions: in vivo
Cavia porcellus [6] = assay: Antitussive activity in citric acid-induced male Dunkin Hartley guinea pig cough model assessed as reduction in cough number at 50 mg/kg, po pretreated with compound for 4 hrs followed by citric acid administration and measured after 10 mins relative to control; format: functional; set-up: scale not given: the % may be the effect or the level left; conditions: time 250 min, 4.167 h
Rattus norvegicus [7] = assay: Reversal of urinary incontinence in male spontaneous hypertensive rat model assessed as decrease in urine frequency at 100 mg/kg, po measured after 3 hrs relative to control; format: functional; set-up: scale not given: the % may be the effect or the level left
[8] = Half-life in male Dunkin Hartley guinea pig at 10 mg/kg, po by LC-MS/MS analysis; format: ADME, organism-based, Cavia porcellus; conditions: in vivo
[9] = Drug concentration in male Dunkin Hartley guinea pig lung at 10 mg/kg, po measured after 4 hrs by LC-MS/MS analysis; format: ADME, organism-based, Cavia porcellus; conditions: read-out: Ct
Cavia porcellus [10] = assay: Antitussive activity in citric acid-induced male Dunkin Hartley guinea pig cough model assessed as reduction in cough number at 20 mg/kg, po pretreated with compound for 4 hrs followed by citric acid administration and measured after 10 mins relative to control; format: functional; set-up: scale not given: the % may be the effect or the level left; conditions: time 250 min, 4.167 h
[11] = Aqueous solubility of compound in pure distilled water at >50 mg/ml; format: physicochemical; conditions: buffer
[12] = AUClast in male Dunkin Hartley guinea pig at 10 mg/kg, iv by LC-MS/MS analysis; format: ADME, organism-based, Cavia porcellus; conditions: in vivo
[13] = Ratio of drug concentration in male Dunkin Hartley guinea pig lung to plasma at 10 mg/kg, po measured after 4 hrs by LC-MS/MS analysis; format: ADME, organism-based, Cavia porcellus
Rattus norvegicus [14] = assay: Reversal of urinary incontinence in male spontaneous hypertensive rat model assessed as decrease in urine volume at 100 mg/kg, po measured after 3 hrs relative to control; format: functional; set-up: scale not given: the % may be the effect or the level left
[15] = AUClast in male Sprague-Dawley rat at 10 mg/kg, po by LC-MS/MS analysis; format: ADME, organism-based; conditions: in vivo
[16] = Half-life in male Dunkin Hartley guinea pig at 10 mg/kg, iv by LC-MS/MS analysis; format: ADME, organism-based, Cavia porcellus; conditions: in vivo
[17] = AUClast in male Dunkin Hartley guinea pig at 10 mg/kg, po by LC-MS/MS analysis; format: ADME, organism-based, Cavia porcellus; conditions: in vivo
[18] = Oral bioavailability in male Dunkin Hartley guinea pig at 10 mg/kg by LC-MS/MS analysis; format: ADME, organism-based, Cavia porcellus; conditions: in vivo
[19] = Drug concentration in male Dunkin Hartley guinea pig lung at 10 mg/kg, po measured after 1 hrs by LC-MS/MS analysis; format: ADME, organism-based, Cavia porcellus; conditions: read-out: Ct
[20] = Drug concentration in male Dunkin Hartley guinea pig blood at 10 mg/kg, po measured after 4 hrs by LC-MS/MS analysis; format: ADME, organism-based, Cavia porcellus; conditions: read-out: Ct
[21] = Ratio of drug concentration in male Dunkin Hartley guinea pig brain to plasma at 10 mg/kg, po measured after 4 hrs by LC-MS/MS analysis; format: ADME, organism-based, Cavia porcellus; conditions: read-out: BPR
[22] = Drug concentration in male Dunkin Hartley guinea pig brain at 10 mg/kg, po measured after 1 hrs by LC-MS/MS analysis; format: ADME, organism-based, Cavia porcellus; conditions: read-out: Ct
[23] = Half-life in male Sprague-Dawley rat at 10 mg/kg, po by LC-MS/MS analysis; format: ADME, organism-based; conditions: in vivo
[24] = Cmax in male Dunkin Hartley guinea pig at 10 mg/kg, po by LC-MS/MS analysis; format: ADME, organism-based, Cavia porcellus; conditions: in vivo
[25] = Drug concentration in male Dunkin Hartley guinea pig brain at 10 mg/kg, po measured after 4 hrs by LC-MS/MS analysis; format: ADME, organism-based, Cavia porcellus; conditions: read-out: Ct
Cavia porcellus [26] = assay: Antitussive activity in citric acid-induced male Dunkin Hartley guinea pig cough model assessed as reduction in cough number at 8 mg/kg, po pretreated with compound for 4 hrs followed by citric acid administration and measured after 10 mins relative to control; format: functional; set-up: scale not given: the % may be the effect or the level left; conditions: time 250 min, 4.167 h
[27] = Volume of distribution at steady state in male Dunkin Hartley guinea pig at 10 mg/kg, iv by LC-MS/MS analysis; format: ADME, organism-based, Cavia porcellus; conditions: in vivo, read-out: Vdss
[28] = Drug concentration in male Dunkin Hartley guinea pig blood at 10 mg/kg, po measured after 1 hrs by LC-MS/MS analysis; format: ADME, organism-based, Cavia porcellus; conditions: read-out: Ct
[29] = Ratio of drug concentration in male Dunkin Hartley guinea pig lung to plasma at 10 mg/kg, po measured after 1 hrs by LC-MS/MS analysis; format: ADME, organism-based, Cavia porcellus
[30] = Toxicity in male spontaneous hypertensive rat model at 100 mg/kg, po; format: organism-based; conditions: in vivo
[31] = Tmax in male Sprague-Dawley rat at 10 mg/kg, po by LC-MS/MS analysis; format: ADME, organism-based; conditions: in vivo
[32] = Aqueous solubility of compound in PBS at >50 mg/ml; format: physicochemical; conditions: buffer
[33] = Tmax in male Dunkin Hartley guinea pig at 10 mg/kg, po by LC-MS/MS analysis; format: ADME, organism-based, Cavia porcellus; conditions: in vivo
[34] = molecular target: Calcium-activated potassium channel subunit alpha-1 (Homo sapiens, UniProt Q12791, G803D/N806K); assay: Activation of hyperactive human BKca channel G803D/N806K mutant transfected in human AD-293 cells incubated for 20 to 30 mins by Flexstation3 multimode microplate reader analysis; format: cell-based
[35] = molecular target: T1, Calcium-activated potassium channel subunit alpha-1; assay: Activation of BKca channel (unknown origin) by cell-based fluorescence assay
[36] = system: Calcium-activated potassium channel subunit alpha-1 (Homo sapiens), Q12791 [UNDEFINED MUTATION]; assay: (§1) Activation of hyperactive human BKca channel G803D/N806K mutant transfected in human AD-293 cells assessed as fold change in maximum relative fluorescence value at 5 uM preincubated for 15 mins followed by Tl+ stimulus buffer addition and measured after 80 sec by Flexstation3 multimode microplate reader analysis; format: cell-based; conditions: filed as opener, time 980.0 sec
[37] = system: Calcium-activated potassium channel subunit alpha-1 (Homo sapiens), Q12791 [UNDEFINED MUTATION]; assay: as §1, with “as” for “as fold change in”, “analysis relative to control” for “analysis”; format: cell-based; conditions: time 980.0 sec
[38] = molecular target: T1, Calcium-activated potassium channel subunit alpha-1; assay: Activation of BKca channel (unknown origin) by cell based method
[39] = molecular target: T1, Calcium-activated potassium channel subunit alpha-1; assay: Activation of human KCa1.1 by patch clamp method

T1 sequence (Q12791 whole entry): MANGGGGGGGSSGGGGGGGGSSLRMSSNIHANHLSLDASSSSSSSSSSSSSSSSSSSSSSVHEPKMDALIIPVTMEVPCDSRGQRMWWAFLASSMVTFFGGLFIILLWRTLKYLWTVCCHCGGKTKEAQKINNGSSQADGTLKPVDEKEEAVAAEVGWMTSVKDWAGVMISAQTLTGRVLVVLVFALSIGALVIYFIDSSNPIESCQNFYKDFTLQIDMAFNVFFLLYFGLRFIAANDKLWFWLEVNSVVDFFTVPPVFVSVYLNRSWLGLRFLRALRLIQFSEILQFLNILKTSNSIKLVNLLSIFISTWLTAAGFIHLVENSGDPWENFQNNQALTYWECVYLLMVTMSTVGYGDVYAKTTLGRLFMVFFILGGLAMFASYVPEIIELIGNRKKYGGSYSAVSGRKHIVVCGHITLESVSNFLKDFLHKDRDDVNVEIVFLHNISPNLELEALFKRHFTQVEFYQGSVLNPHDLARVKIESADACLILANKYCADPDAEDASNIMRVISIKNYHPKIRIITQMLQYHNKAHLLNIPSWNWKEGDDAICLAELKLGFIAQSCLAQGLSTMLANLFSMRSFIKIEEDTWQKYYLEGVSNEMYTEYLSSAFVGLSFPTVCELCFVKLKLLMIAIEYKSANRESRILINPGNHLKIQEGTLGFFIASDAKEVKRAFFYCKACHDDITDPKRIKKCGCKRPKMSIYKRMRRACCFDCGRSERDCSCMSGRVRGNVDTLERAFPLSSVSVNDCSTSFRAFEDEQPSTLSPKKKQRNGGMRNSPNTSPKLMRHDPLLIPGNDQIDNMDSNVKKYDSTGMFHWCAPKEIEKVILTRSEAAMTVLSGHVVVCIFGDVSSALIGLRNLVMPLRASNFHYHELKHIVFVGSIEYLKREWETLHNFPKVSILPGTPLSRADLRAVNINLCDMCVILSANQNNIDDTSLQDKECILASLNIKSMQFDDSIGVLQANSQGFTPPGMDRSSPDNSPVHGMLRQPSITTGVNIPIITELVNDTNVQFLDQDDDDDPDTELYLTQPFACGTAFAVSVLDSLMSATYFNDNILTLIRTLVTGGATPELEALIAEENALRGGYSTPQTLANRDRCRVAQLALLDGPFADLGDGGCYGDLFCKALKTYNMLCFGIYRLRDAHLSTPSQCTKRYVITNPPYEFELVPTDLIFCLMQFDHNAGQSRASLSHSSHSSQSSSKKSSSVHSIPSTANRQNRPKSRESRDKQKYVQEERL
Sequence of Calcium-activated potassium channel subunit alpha-1 (Homo sapiens), Q12791 [UNDEFINED MUTATION] (Q12791 whole entry, looked up, stated change not applied): as the sequence (Q12791 whole entry) above
Sequence of Calcium-activated potassium channel subunit alpha-1 (Homo sapiens, UniProt Q12791, G803D/N806K) (Q12791 whole entry, looked up, stated change not applied): as the sequence (Q12791 whole entry) above

EC50 [1]: 10 µM
Structure (SMILES): O=c1[nH]c2cc(C(F)(F)F)ccc2n1-c1cc(C(F)(F)F)ccc1O

Kp at 1 h [2]: 15 | clearance [3]: 93.3 mL/min/kg | Cmax [5]: 283 ng/mL | half-life [8]: 282 min | concentration at 4 h [9]: 13500 ng/g | solubility [11]: soluble | AUC(0-t) [12]: 1800 ng·h/mL | Kp at 4 h [13]: 587 | AUC(0-t) [15]: 844 ng·h/mL | half-life [16]: 240 min | AUC(0-t) [17]: 188 ng·h/mL | bioavailability [18]: 10.5% | concentration at 1 h [19]: 8160 ng/g | concentration at 4 h [20]: 23 ng/mL | Kp at 4 h [21]: 18 | concentration at 1 h [22]: 424 ng/g | half-life [23]: 426 min | Cmax [24]: 31.8 ng/mL | concentration at 4 h [25]: 414 ng/g | Vd [27]: 18.1 L/kg | concentration at 1 h [28]: 28 ng/mL | Kp at 1 h [29]: 291 | Tmax [31]: 24 min | solubility [32]: soluble | Tmax [33]: 1.8 h
Structure (SMILES): Cl.Cl.Oc1cc(NCCCCCN2CCOCC2)ccc1Oc1c(F)c(F)c(C(F)(F)F)c(F)c1F
ED50 (Cavia porcellus [4]): 11.8 mg/kg | Activity (Cavia porcellus [6]): 69.3% | Activity (Rattus norvegicus [7]): 61.4% | Activity (Cavia porcellus [10]): 54.4% | Activity (Rattus norvegicus [14]): 62.6% | Activity (Cavia porcellus [26]): 25.4% | Activity [30]: Non-toxic

EC50 [34]: 3.9 µM
Structure (SMILES): Oc1ccc(-c2onc(C(F)(F)F)c2-c2ccc(Cl)cc2)c(O)c1

EC50 [35]: 7 µM | fold change (FC) [36]: 2.3 | Activity [37]: 14.4% | EC50 [38]: 7 µM | EC50 [39]: 400 nM
Structure (SMILES): FC(F)(F)c1cc(NC(=S)Nc2ccc(Br)cc2-c2nnn[nH]2)cc(C(F)(F)F)c1
